The record followed here is paper PMC7822874, “Chemoprotective antimalarials identified through quantitative high-throughput screening of Plasmodium blood and liver stage parasites” (Scientific Reports, 2021).

Assay [1] concerns HepG2-A16-CD81EGFP cells. As to conditions: averaged response (percent).
Assay [2] deals with P. berghei-ANKA-GFP-LucCON liver stage parasites in HepG2-A16-CD81EGFP cells. Description: P. berghei liver stage Pb-Luc assay, Method 1 (UCSD, 1536-well). As to conditions: P. berghei liver stage, averaged response (percent); for Average P. berghei 1 µM response (%): the header list (r8) defines it as the 1 µM dose. Format: cell-based, Plasmodium berghei.
In assay [3] the test system is P. falciparum Dd2 (clone B2) asexual blood stage parasites. Briefly: P. falciparum Dd2 asexual blood stage SYBR Green-I 72 h proliferation assay (qHTS). In kind it is cell-based, Plasmodium falciparum. As to conditions: averaged P. falciparum asexual blood stage potency, log10 of AC50 in M. On the technique in general: In qHTS, concentration-response curves come from the screen itself.

The mark [4] stands for this setting: HepG2, the header list (r10) describes it as the 1 µM dose.

Molecules are shown by their SMILES. Read-outs that look alike come from different tables or passages of the source.

As for `O=c1cc(-c2ccccc2)c2ccc3c(c2o1)CN(Cc1ccccc1)CO3` [NCGC00116340], in assay [1] (HepG2, 3 µM dose), the “Average HepG2 3 µM response( %)” value is 100%. Further, the “Average HepG2 3 µM response( %)” value in assay [1] (setting [4]) is listed as 102%. Further, in assay [2], the “Average P. berghei 3 µM response( %)” value is recorded as 76% and the “Average P. berghei 1 µM response (%)” value turned out to be 87%. For the same compound, the “Pf ABS Log AC50 (M)” value in assay [3] is listed as -5.575 M.

Regarding `CCCN(CCC)CCNC(=O)c1cc2c(-c3ccc(Cl)cc3)nn(C)c2s1` [NCGC00108997], the “Average HepG2 3 µM response( %)” value in assay [1] (HepG2, 3 µM dose) is on record as 98%. Besides, in assay [1] (setting [4]), the “Average HepG2 3 µM response( %)” value was 102%. Besides, in assay [2], the “Average P. berghei 3 µM response( %)” value was 49% and the “Average P. berghei 1 µM response (%)” value was 57%. For the same compound, the “Pf ABS Log AC50 (M)” value in assay [3] was -6.212 M.

As for `CCOC(=O)Cn1c2c(c(=N)c3c1CCC3)CCCC2` [MLS000702567], the “Average HepG2 3 µM response( %)” value in assay [1] (HepG2, 3 µM dose) amounted to 104%. Besides, in assay [1] (setting [4]), the “Average HepG2 3 µM response( %)” value amounted to 104%. In addition, in assay [2], the “Average P. berghei 3 µM response( %)” value was found to be 104% and the “Average P. berghei 1 µM response (%)” value was 95%. In addition, the “Pf ABS Log AC50 (M)” value in assay [3] was -4.912 M.

Consider `CCOCCCNc1nc2cc(OC)c(OC)cc2c2nc(-c3ccccc3)nn12` [NCGC00112857], for which the “Average HepG2 3 µM response( %)” value in assay [1] (HepG2, 3 µM dose) worked out at 99%. In addition, in assay [1] (setting [4]), the “Average HepG2 3 µM response( %)” value worked out at 97%. Also, in assay [2], the “Average P. berghei 3 µM response( %)” value was determined as 104% and the “Average P. berghei 1 µM response (%)” value was found to be 109%. For the same compound, the “Pf ABS Log AC50 (M)” value in assay [3] is recorded as -6.675 M.

Regarding `COc1ccc(N2CCN(c3cc(C4CC(N)C4)nc(N)n3)CC2(C)C)cc1` (centres unmarked) [NCGC00422579], the “Average HepG2 3 µM response( %)” value in assay [1] (HepG2, 3 µM dose) was 100%; in assay [1] (setting [4]) it was 102%. In addition, the “Average P. berghei 3 µM response( %)” value in assay [2] is given as 82%. Besides, in assay [2], the “Average P. berghei 1 µM response (%)” value worked out at 91%. In assay [3], the “Pf ABS Log AC50 (M)” value was -5.525 M.

Consider `Cc1ccc(O)c([C@H](CCN(C(C)C)C(C)C)c2ccccc2)c1` [NCGC00159519], for which the “Average HepG2 3 µM response( %)” value is given as 104% in assay [1] (HepG2, 3 µM dose) and 100% in assay [1] (setting [4]). In addition, the “Average P. berghei 3 µM response( %)” value in assay [2] is given as 83%. Moreover, the “Average P. berghei 1 µM response (%)” value in assay [2] is 97%. In addition, the “Pf ABS Log AC50 (M)” value in assay [3] is -5.437 M.

Take `COc1ccc2[nH]c(C[C@@H]3C[C@@H](C(C)C)[C@H](CNCc4ccccc4OC)C=C3C)nc2c1` [NCGC00392082]: the “Average HepG2 3 µM response( %)” value in assay [1] (HepG2, 3 µM dose) stood at 97%. In assay [1] (setting [4]), the “Average HepG2 3 µM response( %)” value amounted to 99%. For the same compound, in assay [2], the “Average P. berghei 3 µM response( %)” value worked out at 47% and the “Average P. berghei 1 µM response (%)” value was 75%. The “Pf ABS Log AC50 (M)” value in assay [3] is given as -5.025 M.

`Cc1ccc2[nH]c(C(=O)Nc3ccc(F)cc3)cc2c1` [MLS001183414]: the “Average HepG2 3 µM response( %)” value in assay [1] (HepG2, 3 µM dose) is given as 100%. In addition, in assay [1] (setting [4]), the “Average HepG2 3 µM response( %)” value is listed as 100%. Further, in assay [2], the “Average P. berghei 3 µM response( %)” value came out at 91% and the “Average P. berghei 1 µM response (%)” value stood at 92%. Also, the “Pf ABS Log AC50 (M)” value in assay [3] is on record as -4.837 M.

`COc1cccc(OC)c1C(=O)NC(S)=Nc1ccc2c(c1)C(=O)N(C)C2=O` [MLS000331897]: the “Average HepG2 3 µM response( %)” value in assay [1] (HepG2, 3 µM dose) turned out to be 104%. The “Average HepG2 3 µM response( %)” value in assay [1] (setting [4]) is 104%. In addition, in assay [2], the “Average P. berghei 3 µM response( %)” value was determined as 113% and the “Average P. berghei 1 µM response (%)” value stood at 122%. Further, the “Pf ABS Log AC50 (M)” value in assay [3] is on record as -6.025 M.

On to `Oc1ccc(-c2nnc(S)n2-c2ccc3c(c2)OCCO3)c(O)c1` [MLS000332001], for which, in assay [1] (HepG2, 3 µM dose), the “Average HepG2 3 µM response( %)” value stood at 95%. Besides, the “Average HepG2 3 µM response( %)” value in assay [1] (setting [4]) amounted to 101%. Further, in assay [2], the “Average P. berghei 3 µM response( %)” value is recorded as 70% and the “Average P. berghei 1 µM response (%)” value came to 78%. For the same compound, the “Pf ABS Log AC50 (M)” value in assay [3] was -6.012 M.

With `CCC(CC)c1cc([C@H]2CN3CC[C@H]2C[C@@H]3CNC(C)=O)nc(-c2ccncc2)n1` [NCGC00394634], in assay [1] (HepG2, 3 µM dose), the “Average HepG2 3 µM response( %)” value was found to be 106%. The “Average HepG2 3 µM response( %)” value in assay [1] (setting [4]) is recorded as 107%. In assay [2], the “Average P. berghei 3 µM response( %)” value is 53% and the “Average P. berghei 1 µM response (%)” value turned out to be 49%. In addition, the “Pf ABS Log AC50 (M)” value in assay [3] is recorded as -4.814 M.

With `CCN1CCN(C(=O)c2ccc3c(c2)N(Cc2ccccc2F)C(=O)c2ccccc2[S+]3[O-])CC1` (centres unmarked) [NCGC00109528], the “Average HepG2 3 µM response( %)” value in assay [1] (HepG2, 3 µM dose) amounted to 98%. In assay [1] (setting [4]), the “Average HepG2 3 µM response( %)” value is on record as 98%. For the same compound, in assay [2], the “Average P. berghei 3 µM response( %)” value was determined as 103% and the “Average P. berghei 1 µM response (%)” value was 106%. For the same compound, in assay [3], the “Pf ABS Log AC50 (M)” value is -6.075 M.

Take `CCCCCC(=O)O[C@]1(C(C)=O)CC[C@H]2[C@@H]3CCC4=CC(=O)CC[C@]4(C)[C@H]3CC[C@@]21C` [MLS000028438]: the “Average HepG2 3 µM response( %)” value in assay [1] (HepG2, 3 µM dose) was 104%. In addition, the “Average HepG2 3 µM response( %)” value in assay [1] (setting [4]) came to 104%. Moreover, in assay [2], the “Average P. berghei 3 µM response( %)” value is recorded as 29% and the “Average P. berghei 1 µM response (%)” value is on record as 85%. The “Pf ABS Log AC50 (M)” value in assay [3] was -5.700 M.
